Tests used:
DDR2 [1] = biological target: T1, DDR2 (Homo sapiens, UniProt Q16832); test: DDR2 LanthaScreen Europium Kinase Binding assay; details: binding affinity; IC50 converted in Ki using Cheng-Prusoff; read-out: Ki DDR2
T1 sequence (Q16832 22-855): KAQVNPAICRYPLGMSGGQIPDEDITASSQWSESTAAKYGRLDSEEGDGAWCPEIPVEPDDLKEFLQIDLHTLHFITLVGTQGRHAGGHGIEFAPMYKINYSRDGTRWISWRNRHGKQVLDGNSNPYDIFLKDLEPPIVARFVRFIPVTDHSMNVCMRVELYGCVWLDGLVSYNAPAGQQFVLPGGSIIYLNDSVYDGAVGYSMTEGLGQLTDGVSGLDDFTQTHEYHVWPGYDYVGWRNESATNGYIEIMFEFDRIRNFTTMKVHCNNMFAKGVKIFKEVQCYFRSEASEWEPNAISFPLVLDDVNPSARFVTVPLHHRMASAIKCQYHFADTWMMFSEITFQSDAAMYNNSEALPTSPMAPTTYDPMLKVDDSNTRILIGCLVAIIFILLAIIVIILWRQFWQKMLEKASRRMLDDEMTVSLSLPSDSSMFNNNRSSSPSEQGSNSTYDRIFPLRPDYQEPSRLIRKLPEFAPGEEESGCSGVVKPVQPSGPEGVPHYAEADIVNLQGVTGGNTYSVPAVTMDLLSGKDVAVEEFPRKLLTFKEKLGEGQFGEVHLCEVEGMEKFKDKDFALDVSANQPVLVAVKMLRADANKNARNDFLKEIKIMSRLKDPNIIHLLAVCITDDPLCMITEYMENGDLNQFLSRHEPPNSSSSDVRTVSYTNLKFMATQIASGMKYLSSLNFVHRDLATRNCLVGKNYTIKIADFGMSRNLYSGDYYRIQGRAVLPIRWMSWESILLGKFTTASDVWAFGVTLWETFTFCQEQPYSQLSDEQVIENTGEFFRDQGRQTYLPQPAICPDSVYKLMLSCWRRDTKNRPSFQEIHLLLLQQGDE
Summary of the method: (§1)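 Binding by TR-FRET tracer displacement: compounds incubated 1 h at room temperature with 5 nM DDR1 plus 20 nM Kinase Tracer 178, or 5 nM DDR2 plus 10 nM tracer, and 2 nM Eu anti-GST antibody in pH 7.5 HEPES/MgCl2/EGTA/BRIJ35 buffer. 665/615 nm ratio gave four-parameter IC50, converted to Ki via Cheng-Prusoff.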

DDR2 [2] = biological target: T1, DDR2; test: DDR2 cell based assay (phospho-ELISA in HEK293T-DDR2 recombinant cells, collagen II stimulation); details: bovine Type II Collagen stimulation
Procedure: The inhibition of DDR2 phosphorylation by compounds was evaluated in HEK293T-DDR2 recombinant cells by phospho-ELISA assay. Briefly, HEK293T-DDR2 cells were seeded in poly-D-lysine-coated 24-well plates at a density of 250.000 cells/well and incubated for 1.5 hours at 37° C. and 5% CO2 in DMEM+10% FBS. After that, the medium was changed to serum-free DMEM and cells were incubated for 3 hours. Then. test compounds were added at different concentrations 30 minutes before stimulation with bovine Type II Collagen at 50 μg/ml for further 3 hours. For DDR2 phospho-ELISA assay (DuoSet IC Human Phospho-DDR2; R&D Systems), protein extracts were obtained by adding 60 μl/well of lysis buffer prepared according to the manufacturer's instructions. Protein concentration in the samples was determined by BCA assay and the levels of phospho-DDR2 were determined following R&D Systems indications. Raw data were normalized to maximal inhibition control (0% for normalization) and positive control (100% for normalization; cells treated with […] collagen II) and IC50 parameters were calculated in GraphPad Prism 8.0 software, using sigmoidal dose-response curve fitting with variable slope.

DDR1 [3] = biological target: T2, DDR1 (Homo sapiens, UniProt Q08345); test: DDR1 cell based assay (PathHunter U2OS DDR1, collagen II stimulation); details: U2OS-DDR1 cells, bovine Type II Collagen stimulation
T2 sequence (Q08345 19-913): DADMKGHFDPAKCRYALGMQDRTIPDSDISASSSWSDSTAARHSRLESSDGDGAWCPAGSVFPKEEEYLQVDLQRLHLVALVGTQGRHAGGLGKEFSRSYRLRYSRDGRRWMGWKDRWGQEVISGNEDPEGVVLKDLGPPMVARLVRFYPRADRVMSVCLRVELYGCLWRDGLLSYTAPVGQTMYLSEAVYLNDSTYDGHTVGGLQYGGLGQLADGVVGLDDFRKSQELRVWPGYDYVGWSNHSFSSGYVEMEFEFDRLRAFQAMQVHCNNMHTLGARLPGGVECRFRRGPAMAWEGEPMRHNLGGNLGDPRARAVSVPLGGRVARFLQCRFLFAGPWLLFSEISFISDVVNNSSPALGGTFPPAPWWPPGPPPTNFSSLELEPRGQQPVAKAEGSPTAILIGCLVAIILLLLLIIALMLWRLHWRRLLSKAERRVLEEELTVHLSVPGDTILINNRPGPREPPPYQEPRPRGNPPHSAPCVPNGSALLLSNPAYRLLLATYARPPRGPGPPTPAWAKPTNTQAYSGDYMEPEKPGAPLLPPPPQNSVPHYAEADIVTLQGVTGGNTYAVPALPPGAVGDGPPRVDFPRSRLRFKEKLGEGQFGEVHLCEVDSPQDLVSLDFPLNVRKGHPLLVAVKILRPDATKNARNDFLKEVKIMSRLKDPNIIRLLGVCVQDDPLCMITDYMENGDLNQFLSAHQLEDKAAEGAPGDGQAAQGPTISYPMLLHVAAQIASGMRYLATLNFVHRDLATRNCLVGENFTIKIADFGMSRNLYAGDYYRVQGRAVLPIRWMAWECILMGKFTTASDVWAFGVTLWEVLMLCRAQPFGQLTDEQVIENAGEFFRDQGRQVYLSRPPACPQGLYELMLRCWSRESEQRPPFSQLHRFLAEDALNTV
Summary of the method: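 U2OS-DDR1 PathHunter cells preincubated 30 min with compound, then stimulated overnight at 37 °C with 20 μg/ml bovine type II collagen. Luminescent complementation signal read after 1 h detection at room temperature; normalized to vehicle (0%) and collagen-only (100%) controls, IC50 from variable-slope sigmoidal fit.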

DDR1 [4] = biological target: T2, DDR1; test: DDR1 LanthaScreen Europium Kinase Binding assay; details: binding affinity; IC50 converted in Ki using Cheng-Prusoff; read-out: Ki DDR1
Summary of the method: as §1

Row | Ki (DDR2 [1]) [nM] | IC50 (DDR2 [2]) [nM] | IC50 (DDR1 [3]) [nM] | Ki (DDR1 [4]) [nM] | SMILES
1 | < 25 | 50 to 80 | < 25 | < 25 | Cc1cn(-c2cc(NC(=O)c3ccc4c(c3)N(Cc3cnc5cnccn35)CC4)cc(C(F)(F)F)c2)cn1 [Example 3, 1-(imidazo[1,2-a]pyrazin-3-ylmethyl)-N-(3-(4-methyl-1H-imidazol-1-yl)-5-(trifluoromethyl)phenyl)indoline-6-carboxamide]
2 | < 25 | < 25 | < 25 | < 25 | Cc1n[nH]c2ncc(CN3CCc4ccc(C(=O)Nc5cc(C(C)(C)C)no5)cc43)cc12 [Example 80, N-(3-(tert-butyl)isoxazol-5-yl)-1-((3-methyl-1H-pyrazolo[3,4-b]pyridin-5-yl)methyl)indoline-6-carboxamide]
3 | < 25 | 50 to 80 | < 25 | < 25 | CC(C)(c1cc(NC(=O)c2ccc3c(c2)N(Cc2cnc4[nH]ncc4c2)CC3)no1)C(F)(F)F [Example 36, 1-((1H-pyrazolo[3,4-b]pyridin-5-yl)methyl)-N-(5-(1,1,1-trifluoro-2-methylpropan-2-yl)isoxazol-3-yl)indoline-6-carboxamide]
4 | < 25 | 50 to 80 | < 25 | < 25 | CC1CN(Cc2cnc3cnccn23)c2cc(C(=O)Nc3cccc(C(F)(F)F)c3)ccc21 (stereo not drawn) [Example 31, 1-(imidazo[1,2-a]pyrazin-3-ylmethyl)-3-methyl-N-(3-(trifluoromethyl)phenyl)indoline-6-carboxamide]
5 | < 25 | < 25 | < 25 | < 25 | Cc1cn(-c2cc(NC(=O)c3ccc4c(c3)N(Cc3cnc5[nH]ccc5c3)CC4)cc(C(F)(F)F)c2)cn1 [Example 2, 1-((1H-pyrrolo[2,3-b]pyridin-5-yl)methyl)-N-(3-(4-methyl-1H-imidazol-1-yl)-5-(trifluoromethyl)phenyl)indoline-6-carboxamide]
6 | < 25 | 25 to 50 | < 25 | < 25 | CC1CN(Cc2cnc3[nH]ncc3c2)c2cc(C(=O)Nc3cccc(C(F)(F)F)c3)ccc21 (single isomer, unassigned) [Example 34, 1-((1H-pyrazolo[3,4-b]pyridin-5-yl)methyl)-3-methyl-N-(3-(trifluoromethyl)phenyl)indoline-6-carboxamide]
7 | 25 to 50 | 25 to 50 | < 25 | < 25 | Cc1cn(-c2cc(NC(=O)c3ccc4c(c3)N(C(=O)c3cnc5[nH]ncc5c3)CC4C)cc(C(F)(F)F)c2)cn1 (stereo not drawn) [Example 28, 3-methyl-N-(3-(4-methyl-1H-imidazol-1-yl)-5-(trifluoromethyl)phenyl)-1-(1H-pyrazolo[3,4-b]pyridine-5-carbonyl)indoline-6-carboxamide]
8 | < 25 | 25 to 50 | < 25 | < 25 | Cc1cn(-c2cc(C(=O)Nc3ccc4c(c3)N(Cc3cnc5cnccn35)CC4)cc(C(F)(F)F)c2)cn1 [Example 22, N-(1-(imidazo[1,2-a]pyrazin-3-ylmethyl)indolin-6-yl)-3-(4-methyl-1H-imidazol-1-yl)-5-(trifluoromethyl)benzamide]
9 | < 25 | < 25 | < 25 | < 25 | CN1CCN(Cc2cc(NC(=O)c3ccc4c(c3)N(Cc3cnc5[nH]ccc5c3)CC4)cc(C(F)(F)F)c2)CC1 [Example 9, 1-((1H-pyrrolo[2,3-b]pyridin-5-yl)methyl)-N-(3-((4-methylpiperazin-1-yl)methyl)-5-(trifluoromethyl)phenyl)indoline-6-carboxamide]
10 | < 25 | 50 to 80 | < 25 | < 25 | Cc1cn(-c2cc(NC(=O)c3ccc4c(c3)N(Cc3cnc5[nH]ncc5c3)CC4)cc(C(F)(F)F)c2)cn1 [Example 6, 1-((1H-pyrazolo[3,4-b]pyridin-5-yl)methyl)-N-(3-(4-methyl-1H-imidazol-1-yl)-5-(trifluoromethyl)phenyl)indoline-6-carboxamide]
11 | < 25 | < 25 | < 25 | < 25 | Cc1cn(-c2cc(NC(=O)c3ccc4c(c3)N(Cc3cnc5cnccn35)CC4C)cc(C(F)(F)F)c2)cn1 (single isomer, unassigned) [Example 27, 1-(imidazo[1,2-a]pyrazin-3-ylmethyl)-3-methyl-N-(3-(4-methyl-1H-imidazol-1-yl)-5-(trifluoromethyl)phenyl)indoline-6-carboxamide]
12 | < 25 | < 25 | < 25 | < 25 | Cc1n[nH]c2ncc(CN3CCc4ccc(C(=O)Nc5ccc(CN(C)C)c(C(F)(F)F)c5)cc43)cc12 [Example 69, N-(4-((dimethylamino)methyl)-3-(trifluoromethyl)phenyl)-1-((3-methyl-1H-pyrazolo[3,4-b]pyridin-5-yl)methyl)indoline-6-carboxamide]
13 | < 25 | 25 to 50 | < 25 | 25 to 50 | O=C(Nc1cc(F)cc(C(F)(F)F)c1)c1ccc2c(c1)N(Cc1cnc3[nH]ncc3c1)CC2 [Example 39, 1-((1H-pyrazolo[3,4-b]pyridin-5-yl)methyl)-N-(3-fluoro-5-(trifluoromethyl)phenyl)indoline-6-carboxamide]
14 | < 25 | 50 to 80 | < 25 | < 25 | Cc1cn(-c2cc(C(=O)Nc3ccc4c(c3)N(Cc3cnc5[nH]ncc5c3)CC4)cc(C(F)(F)F)c2)cn1 [Example 38, N-(1-((1H-pyrazolo[3,4-b]pyridin-5-yl)methyl)indolin-6-yl)-3-(4-methyl-1H-imidazol-1-yl)-5-(trifluoromethyl)benzamide]
15 | < 25 | 50 to 80 | < 25 | < 25 | Cc1n[nH]c2ncc(CN3CCc4ccc(C(=O)Nc5ccc(CN6CCN(C)CC6)c(C(F)(F)F)c5)cc43)cc12 [Example 65, 1-((3-methyl-1H-pyrazolo[3,4-b]pyridin-5-yl)methyl)-N-(4-((4-methylpiperazin-1-yl)methyl)-3-(trifluoromethyl)phenyl)indoline-6-carboxamide]
16 | < 25 | < 25 | < 25 | < 25 | O=C(Nc1cccc(OC(F)(F)F)c1)c1ccc2c(c1)N(Cc1cnc3[nH]ncc3c1)CC2 [Example 37, 1-((1H-pyrazolo[3,4-b]pyridin-5-yl)methyl)-N-(3-(trifluoromethoxy)phenyl)indoline-6-carboxamide]
17 | < 25 | < 25 | < 25 | < 25 | CN1CCN(Cc2ccc(NC(=O)c3ccc4c(c3)N(Cc3cnc5[nH]ncc5c3)CC4)cc2C(F)(F)F)CC1 [Example 75]
18 | < 25 | < 25 | < 25 | < 25 | O=C(Nc1cccc(C(F)(F)F)c1)c1ccc2c(c1)N(Cc1cnc3[nH]ncc3c1)CC2 [Example 35, 1-((1H-pyrazolo[3,4-b]pyridin-5-yl)methyl)-N-(3-(trifluoromethyl)phenyl)indoline-6-carboxamide]
